US10286000B2, “Retinoid X receptor-gamma agonists and retinoid X receptor-alpha antagonists for treatment of cancer” (St. Jude Children's Research Hospital, Inc., priority 2013, dated 2019)
Entries after “also recorded” stand apart in the source; their conditions may differ.

Assays:
[1] = system: NKG2DL (MICA-B, ULBP1-3) surface expression; assay: flow cytometry of NKG2DL cell surface expression in cancer cell lines; format: cell-based, human; details: for effect of co-treatment on SPIR's upregulation of NKG2DLs: HCT116, SPIR 56 μM 3 days, HX531 10 μM, caffeine 1.5 mM, wortmannin 10 μM, KU55933 10 μM, VE-821 10 μM; for NKG2DL expression, compound alone: HCT116 cells, 3 days
Protocol: Data are representative of five independent experiments. […] Controls were stained with APC-conjugated anti-human Fc antibody alone without preincubation with NKG2D-Fc. Data are representative of three independent experiments. […] Results are representative of two independent experiments. […] (E) NKG2DL mRNA expression in the colon cancer cell lines was analyzed by qRT-PCR analysis. Data are normalized to GAPDH mRNA levels and are presented as fold-change relative to the expression in DMSO-treated cells (n=5). (F) Lentiviral-based luciferase reporter construct containing the putative ULBP2 promoter (−2415 to 0 bp from the transcription start site: 73 bp upstream of ATG) was transduced into the colon cancer cell lines. Positively transduced cells were selected by puromycin treatment (2 μg/ml) for 2 weeks. […] Data shown are expressed as fold-change relative to the luciferase activity observed in DMSO-treated cells (n=3). * P<0.05, ** P<0.01.
(§1) Cell lines were stained with allophycocyanin-conjugated anti-MICA, anti-MICB, or anti-ULBP2 antibodies for 20 min at 4° C. For ULBP1 and ULBP3 staining, cells were first incubated with anti-ULBP1 and anti-ULBP3 antibodies and then with allophycocyanin-conjugated goat anti-mouse IgG antibody. To analyze total NKG2DL cell surface expression, cells were first incubated with human NKG2D-Fc for 20 min at 4° C. and then with allophycocyanin-conjugated mouse anti-human IgG (Fc) antibody. Cells were washed and analyzed on a C6 flow cytometer (Accuri). Data were analyzed using FlowJo software (TreeStar).

[2] = system: HCT116, HT29, and CAL27 cells; assay: in vitro cell invasion assay (ECM-coated Transwell); format: cell-based, human; details: HCT116 cells
Protocol: (§2) The number of cells that invaded the ECM was determined after 24 h. Data are expressed as percentage change in tumor invasion relative to that of DMSO-treated cells (n=3). (D) Wound healing by DMSO- and SPIR-treated HCT116, HT29, and CAL27 cells was compared. Data are calculated as the percentage change in distance of migration relative to that of DMSO-treated cells (n=3). […] Tumor xenografts and lung metastases were detected by bioluminescence imaging on day 25. Data are shown as the average total flux (photons/second)±standard deviation (n=8). (F) The lung metastases (arrows) were confirmed by examining lung tissue sections. * P≤0.05, ** P<0.01, *** P<0.005, **** P<0.0001.
The invasiveness of the tumor cells was determined by using the CytoSelect 96-well Cell Invasion Assay with Basement Membrane (Cell Biolabs) according to the manufacturer instructions.

[3] = system: HCT116, HT29, and CAL27 cells; assay: wound-healing assay; format: cell-based, human; details: HCT116 cells
Protocol: as §2
Confluent cell layers of CAL27 and HT29 cells with a 500 μm±50 μm gap were formed by using Ibidi culture inserts (RPI Corp.). Gap distances were measured at various times using a Nikon Eclipse Ti inverted microscope and NIS-Elements software (Nikon).

TIMP2 and TIMP3 = assay: qRT-PCR of TIMP2 and TIMP3 mRNA; format: cell-based, human; details: HCT116 cells, 3 days
Protocol: as §2
For qRT-PCR, total RNA was extracted from untreated or drug-treated tumor cells by using the RNA Clean & Concentrator (Zymo Research). All cDNA was generated by using the SuperScript VILO cDNA Synthesis kit (Life Technologies) and diluted 10-fold for analysis using the 7900HT Fast Real-time PCR System (Applied Biosystems). The data were calculated as the CT of target genes normalized to the CT of GAPDH of each sample. Primer sequences of the target genes were: MICA-F: 5′-[…]-3′, (SEQ ID NO: 14) MICA-R: 5′-[…]-[…]-3′, (SEQ ID NO: 15) MICB-F: 5′-[…]-3′, (SEQ ID NO: 16) MICB-R:5′-CCCTC-[…]-3′, (SEQ ID NO: 17), ULBP1-F:5′-[…]-3′, (SEQ ID NO: 18), ULBP1-R:5′-[…]-3′, (SEQ ID NO: 19), ULBP2-F:5′-[…]-3′, (SEQ ID NO: 20), ULBP2-R:5′-[…]-3′, (SEQ ID NO: 21), ULBP3-F:5′-[…]-TTCG-3′, (SEQ ID NO: 22), ULBP3-R:[…]-3′, (SEQ ID NO: 23), TIMP2-F:5′-[…]-[…]-3′, (SEQ ID NO: 24), TIMP2-R:[…]-3′, (SEQ ID NO: 25), TIMP3-F:5′-[…]-3′, (SEQ ID NO: 26), TIMP3-R:5′-[…]-[…]-3′ (SEQ ID NO: 27), GAPDH-F: 5′-[…]3′ (SEQ ID NO: 28), GAPDH-R: 5′-G-[…]-3′ (SEQ ID NO: 29). […] Differentially expressed transcripts were analyzed by ANOVA on Spotfire program.

47 NHRs in HCT116 cells = assay: human nuclear hormone receptor siRNA library / siRNA knockdown, NKG2DL expression by NKG2D-Fc staining; format: cell-based
Protocol: as §1
For the transfection study, 2×10^5 cells were transfected with 60 pmol of siRNA molecules using lipofectamine RNAiMAX according to the manufacturer's instructions (Invitrogen).
Consistent with previous reports, RXR-gamma was constitutively expressed in HCT116 cells (FIG. 5C) (Papi et al. 2010. Cancer Lett 297:65-74). Expression of RXR-gamma mRNA was also observed in all other cell lines tested. (FIG. 5D).

With Cn1c(=O)c2c(ncn2C)n(C)c1=O [caffeine] the “effect of co-treatment on SPIR's upregulation of NKG2DLs” value (“effect of co-treatment … of NKG2DLs” below) [1] was “completely abolished”.
In the case of CC1=C(/C=C/C(C)=C\C=C\C(C)=C\C(=O)O)C(C)(C)CCC1 [9-cis-RA, 9-cis-retinoic acid], the “NKG2DL expression, compound alone” value [1] is reported as “did not induce the upregulation of NKG2DL expression; also recorded: decrease was observed”.
In the case of COC(=O)[C@@H]1CC2=CC(=O)CC[C@]2(C)[C@@]23O[C@@H]2C[C@@]2(C)[C@@H](CC[C@@]24CCC(=O)O4)[C@H]13 [eplerenone], the “NKG2DL expression, compound alone” value [1] is reported as “did not reproduce the phenotypes of enhanced expression of NKG2DL”, the “cell invasion, MR antagonists vs SPIR” value [2] is reported as “did not reproduce the suppressive effect of SPIR” and the “cell migration, MR antagonists vs SPIR” value [3] is reported as “did not reproduce the suppressive effect of SPIR”. For the same compound, the TIMP2 expression (TIMP2 and TIMP3) was “neither canrenone nor eplerenone upregulated TIMP2 expression”.
“RXR-alpha siRNA: siRNA targeting RXR-alpha, ThermoScientific Cat No. D-003443-06; GGGAGAAGGUCUAUGCGUC (listed as RNA, chemistry not given here)” was tested, and the “NKG2DL expression after gene knockdown without drug treatment” value (47 NHRs in HCT116 cells) was “enhances the expression of NKG2DLs; also recorded: increase of NKG2DL expression” and the “SPIR-mediated NKG2DL upregulation after siRNA knockdown” value (47 NHRs in HCT116 cells) was “did not affect the potential of SPIR in upregulating NKG2DL expression”.
With CN1c2ccc([N+](=O)[O-])cc2N=C(c2ccc(C(=O)O)cc2)c2cc3c(cc21)C(C)(C)CCC3(C)C [HX531] the “effect of co-treatment … of NKG2DLs” value [1] was “significantly reduced”.
For C[C@]12CCC(=O)C=C1C=C[C@@H]1[C@@H]2CC[C@@]2(C)[C@H]1CC[C@@]21CCC(=O)O1 [canrenone], the “NKG2DL expression, compound alone” value [1] was “did not reproduce the phenotypes of enhanced expression of NKG2DL”, the “cell invasion, MR antagonists vs SPIR” value [2] was “did not reproduce the suppressive effect of SPIR” and the “cell migration, MR antagonists vs SPIR” value [3] was “did not reproduce the suppressive effect of SPIR”. For the same compound, the TIMP2 expression (TIMP2 and TIMP3) was “neither canrenone nor eplerenone upregulated TIMP2 expression”.
For O=c1cc(-c2cccc3c2Sc2ccccc2S3)oc(N2CCOCC2)c1 [KU55933], the “effect of co-treatment … of NKG2DLs” value [1] was “completely abolished”.
CS(=O)(=O)c1ccc(-c2cnc(N)c(C(=O)Nc3ccccc3)n2)cc1 [VE-821] was tested, and the “effect of co-treatment … of NKG2DLs” value [1] was “only partially reduced” and the “effect of co-treatment on NKG2DL expression at increased concentration” value ([1]; HCT116, SPIR 56 μM, VE-821 20 μM) was “did not further affect NKG2DL expression”.
